# Assay results from patent US10633419B2, “Immunomodulators” (BRISTOL-MYERS SQUIBB COMPANY, priority 2014, dated 2020).
# Starred links: 1 amine or outer side, 2 acyl side, 3 side chain; linkers in the order of their positions; H or OH if unused. Positions of bridges follow the written chain, without caps; N, C: chain ends. Non-standard residues stand in square brackets, D forms with d. Residues, ends and D or L forms follow the SMILES beside them. Groups on a side chain read outwards from the residue. *: point of attachment. Trp(1-CH2COOH) = N[C@@H](Cc1cn(CC(=O)O)c2ccccc12)C(=O)O; X9 = O=C(O)CCCCCCCCCCCCCCCCC(=O)N[C@@H](CCN*)C(=O)O; C18 diacid = O=C(O)CCCCCCCCCCCCCCCCC(=O)*; γGlu = O=C(O)[C@H](CCC(=O)[*:2])N[*:1]; βAsp = O=C(O)[C@H](CC(=O)[*:2])N[*:1]; X16 = O=C([C@H]1COCCN1[*:1])[*:2]; Hyp = O=C(O)[C@@H]1C[C@@H](O)CN1; NMeNle = CCCC[C@H](NC)C(=O)O; Pip = O=C(O)[C@@H]1CCCCN1; NMeA = CN[C@@H](C)C(=O)O; Dab = NCC[C@H](N)C(=O)O; Dap = NC[C@H](N)C(=O)O; PEG2 = NCCOCCOCCC(=O)O; PEG1 = NCCOCCC(=O)O; AEA = NCCOCC(=O)O; GABA = NCCCC(=O)O; βAla = NCCC(=O)O
# Target: T1, PD-L1 (Homo sapiens, UniProt Q9NZQ7)
# T1 construct: hPDL1(19-239)-TVMV-His; made in house; host or cells: HEK293T
# Experiment: PD-1/PD-L1 Homogenous Time-Resolved Fluorescence (HTRF) binding assay (PD-1-Ig/PD-L1-His)
# Details: inhibition of PD-1-Ig binding to PD-L1-TVMV-His; value given as number; read-out: HTRF IC50
# Summary of the method: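 Inhibitors pre-incubated 15 min with PD-L1-His (10 nM final), then PD-1-Ig (20 nM final) added for 15 min in dPBS/0.1% BSA/0.05% Tween-20. Eu-cryptate anti-Ig (1 nM) and APC anti-His (20 nM) added, 30 min equilibration, 665/620 nm HTRF ratio read.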
# T1 sequence (Q9NZQ7 with tags, fused parts or gaps): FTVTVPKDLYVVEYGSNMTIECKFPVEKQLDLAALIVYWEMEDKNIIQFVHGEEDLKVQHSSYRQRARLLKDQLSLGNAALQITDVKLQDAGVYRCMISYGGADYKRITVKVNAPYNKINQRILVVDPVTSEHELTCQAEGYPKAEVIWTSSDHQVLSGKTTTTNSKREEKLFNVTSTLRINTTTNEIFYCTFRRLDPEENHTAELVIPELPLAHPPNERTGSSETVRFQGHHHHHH
row,IC50,SMILES
1,3.8 nM,CCCC[C@H]1C(=O)N(C)[C@@H](CCCC)C(=O)N[C@@H](CC(C)C)C(=O)N[C@H](C(=O)NCC(=O)N[C@@H](CC(=O)NCCCC(=O)NCC[C@H](NC(=O)CCCCCCCCCCCCCCCCC(=O)O)C(=O)O)C(=O)O)CSCC(=O)N[C@@H](Cc2ccc(O)cc2)C(=O)N2CCCC[C@H]2C(=O)N[C@@H](CC(N)=O)C(=O)N2CCC[C@H]2C(=O)N[C@@H](CN)C(=O)N[C@@H](CC(C)C)C(=O)N2C[C@H](O)C[C@H]2C(=O)N[C@@H](Cc2c[nH]c3ccccc23)C(=O)N[C@@H](CCN)C(=O)N[C@@H](Cc2cn(CC(=O)O)c3ccccc23)C(=O)N1C [Example 13162] ({CH2CO}-Y[Pip]NP[Dap]L[Hyp]W[Dab][Trp(1-CH2COOH)][NMeNle][NMeNle]LCG[βAsp][GABA]-X9; thioether N-14)

# Same assay, conditions: inhibition of PD-1-Ig binding to PD-L1-TVMV-His; value given as range class; read-out: HTRF IC50
row,IC50,SMILES
1,10 to 99 nM,CCCC[C@H]1C(=O)N(C)[C@@H](CCCC)C(=O)N[C@@H](CC(C)C)C(=O)N[C@H](C(=O)NCC(=O)N[C@@H](CCNC(=O)CC[C@H](NC(=O)CCCCCCCCCCCCCCCCC(=O)O)C(=O)O)C(=O)O)CSCC(=O)N[C@@H](Cc2ccc(OC)cc2)C(=O)N2CCCC[C@H]2C(=O)N[C@@H](CC(N)=O)C(=O)N2CCC[C@H]2C(=O)N[C@@H](Cc2c[nH]cn2)C(=O)N[C@@H](CC(C)C)C(=O)N2C[C@H](O)C[C@H]2C(=O)N[C@@H](Cc2c[nH]c3ccccc23)C(=O)N[C@@H](CCN)C(=O)N[C@@H](Cc2cn(CC(=O)O)c3ccccc23)C(=O)N1C [Example 13151] ({CH2CO}-Y(Me)[Pip]NPHL[Hyp]W[Dab][Trp(1-CH2COOH)][NMeNle][NMeNle]LCG[Dab]([γGlu-C18 diacid])-OH; thioether N-14)
2,0.3 to 9.9 nM,CCCC[C@H]1C(=O)N(C)[C@@H](CCCC)C(=O)N[C@@H](CC(C)C)C(=O)N[C@H](C(=O)NCC(=O)N[C@@H](CNC(=O)CC[C@H](NC(=O)CCCCCCCCCCCCCCCCC(=O)O)C(=O)O)C(=O)O)CSCC(=O)N[C@@H](Cc2ccc(O)cc2)C(=O)N2CCCC[C@H]2C(=O)N[C@@H](CC(N)=O)C(=O)N2CCC[C@H]2C(=O)N[C@@H](CN)C(=O)N[C@@H](CC(C)C)C(=O)N2C[C@H](O)C[C@H]2C(=O)N[C@@H](Cc2c[nH]c3ccccc23)C(=O)N[C@@H](CCN)C(=O)N[C@@H](Cc2cn(CC(=O)O)c3ccccc23)C(=O)N1C [Example 13152] ({CH2CO}-Y[Pip]NP[Dap]L[Hyp]W[Dab][Trp(1-CH2COOH)][NMeNle][NMeNle]LCG[Dap]([γGlu-C18 diacid])-OH; thioether N-14)
3,0.3 to 9.9 nM,CCCC[C@H]1C(=O)N(C)[C@@H](CCCC)C(=O)N[C@@H](CC(C)C)C(=O)N[C@H](C(=O)NCC(=O)N[C@@H](CNC(=O)CC[C@H](NC(=O)CCCCCCCCCCCCCCCCC(=O)O)C(=O)O)C(=O)O)CSCC(=O)N[C@@H](Cc2ccc(O)cc2)C(=O)N(C)[C@@H](C)C(=O)N[C@@H](CC(N)=O)C(=O)N2CCC[C@H]2C(=O)N[C@@H](CN)C(=O)N[C@@H](CC(C)C)C(=O)N2C[C@H](O)C[C@H]2C(=O)N[C@@H](Cc2c[nH]c3ccccc23)C(=O)N[C@@H](CCN)C(=O)N[C@@H](Cc2cn(CC(=O)O)c3ccccc23)C(=O)N1C [Example 13153] ({CH2CO}-Y[NMeA]NP[Dap]L[Hyp]W[Dab][Trp(1-CH2COOH)][NMeNle][NMeNle]LCG[Dap]([γGlu-C18 diacid])-OH; thioether N-14)
4,0.3 to 9.9 nM,CCCC[C@H]1C(=O)N(C)[C@@H](CCCC)C(=O)N[C@@H](CC(C)C)C(=O)N[C@H](C(=O)NCC(=O)N[C@@H](CNC(=O)CC[C@H](NC(=O)CCCCCCCCCCCCCCCCC(=O)O)C(=O)O)C(=O)O)CSCC(=O)N[C@@H](Cc2ccc(OC)cc2)C(=O)N2CCCC[C@H]2C(=O)N[C@@H](CC(N)=O)C(=O)N2CCC[C@H]2C(=O)N[C@@H](Cc2c[nH]cn2)C(=O)N[C@@H](CCC(N)=O)C(=O)N2C[C@H](O)C[C@H]2C(=O)N[C@@H](Cc2c[nH]c3ccccc23)C(=O)N[C@@H](CCN)C(=O)N[C@@H](Cc2cn(CC(=O)O)c3ccccc23)C(=O)N1C [Example 13154] ({CH2CO}-Y(Me)[Pip]NPHQ[Hyp]W[Dab][Trp(1-CH2COOH)][NMeNle][NMeNle]LCG[Dap]([γGlu-C18 diacid])-OH; thioether N-14)
5,0.3 to 9.9 nM,CCCC[C@H]1C(=O)N(C)[C@@H](CCCC)C(=O)N[C@@H](CC(C)C)C(=O)N[C@H](C(=O)NCC(=O)N[C@@H](CC(=O)NCC[C@H](NC(=O)CCCCCCCCCCCCCCCCC(=O)O)C(=O)O)C(=O)O)CSCC(=O)N[C@@H](Cc2ccc(OC)cc2)C(=O)N2CCCC[C@H]2C(=O)N[C@@H](CC(N)=O)C(=O)N2CCC[C@H]2C(=O)N[C@@H](Cc2c[nH]cn2)C(=O)N[C@@H](CCC(N)=O)C(=O)N2C[C@H](O)C[C@H]2C(=O)N[C@@H](Cc2c[nH]c3ccccc23)C(=O)N[C@@H](CCN)C(=O)N[C@@H](Cc2cn(CC(=O)O)c3ccccc23)C(=O)N1C [Example 13156] ({CH2CO}-Y(Me)[Pip]NPHQ[Hyp]W[Dab][Trp(1-CH2COOH)][NMeNle][NMeNle]LCGD(X9)-OH; thioether N-14)
6,0.3 to 9.9 nM,CCCC[C@H]1C(=O)N(C)[C@@H](CCCC)C(=O)N[C@@H](CC(C)C)C(=O)N[C@H](C(=O)NCC(=O)N[C@@H](CC(=O)NCC[C@H](NC(=O)CCCCCCCCCCCCCCCCC(=O)O)C(=O)O)C(=O)O)CSCC(=O)N[C@@H](Cc2ccc(OC)cc2)C(=O)N2CCCC[C@H]2C(=O)N[C@@H](CC(=O)O)C(=O)N2CCC[C@H]2C(=O)N[C@@H](Cc2c[nH]cn2)C(=O)N[C@@H](CCC(N)=O)C(=O)N2C[C@H](O)C[C@H]2C(=O)N[C@@H](Cc2c[nH]c3ccccc23)C(=O)N[C@@H](CCN)C(=O)N[C@@H](Cc2cn(CC(=O)O)c3ccccc23)C(=O)N1C [Example 13157] ({CH2CO}-Y(Me)[Pip]DPHQ[Hyp]W[Dab][Trp(1-CH2COOH)][NMeNle][NMeNle]LCGD(X9)-OH; thioether N-14)
7,0.3 to 9.9 nM,CCCC[C@H]1C(=O)N(C)[C@@H](CCCC)C(=O)N[C@@H](CC(C)C)C(=O)N[C@H](C(=O)NCC(=O)N[C@@H](CC(=O)N2CCOC[C@@H]2C(=O)NCC[C@H](NC(=O)CCCCCCCCCCCCCCCCC(=O)O)C(=O)O)C(=O)O)CSCC(=O)N[C@@H](Cc2ccc(O)cc2)C(=O)N2CCCC[C@H]2C(=O)N[C@@H](CC(N)=O)C(=O)N2CCC[C@H]2C(=O)N[C@@H](CN)C(=O)N[C@@H](CC(C)C)C(=O)N2C[C@H](O)C[C@H]2C(=O)N[C@@H](Cc2c[nH]c3ccccc23)C(=O)N[C@@H](CCN)C(=O)N[C@@H](Cc2cn(CC(=O)O)c3ccccc23)C(=O)N1C [Example 13158] ({CH2CO}-Y[Pip]NP[Dap]L[Hyp]W[Dab][Trp(1-CH2COOH)][NMeNle][NMeNle]LCG[βAsp][X16]-X9; thioether N-14)
8,0.3 to 9.9 nM,CCCC[C@H]1C(=O)N(C)[C@@H](CCCC)C(=O)N[C@@H](CC(C)C)C(=O)N[C@H](C(=O)NCC(=O)N[C@@H](CC(=O)NCCOCC(=O)NCC[C@H](NC(=O)CCCCCCCCCCCCCCCCC(=O)O)C(=O)O)C(=O)O)CSCC(=O)N[C@@H](Cc2ccc(O)cc2)C(=O)N2CCCC[C@H]2C(=O)N[C@@H](CC(N)=O)C(=O)N2CCC[C@H]2C(=O)N[C@@H](CN)C(=O)N[C@@H](CC(C)C)C(=O)N2C[C@H](O)C[C@H]2C(=O)N[C@@H](Cc2c[nH]c3ccccc23)C(=O)N[C@@H](CCN)C(=O)N[C@@H](Cc2cn(CC(=O)O)c3ccccc23)C(=O)N1C [Example 13159] ({CH2CO}-Y[Pip]NP[Dap]L[Hyp]W[Dab][Trp(1-CH2COOH)][NMeNle][NMeNle]LCG[βAsp][AEA]-X9; thioether N-14)
9,0.3 to 9.9 nM,CCCC[C@H]1C(=O)N(C)[C@@H](CCCC)C(=O)N[C@@H](CC(C)C)C(=O)N[C@H](C(=O)NCC(=O)N[C@@H](CC(=O)NCCC(=O)NCC[C@H](NC(=O)CCCCCCCCCCCCCCCCC(=O)O)C(=O)O)C(=O)O)CSCC(=O)N[C@@H](Cc2ccc(O)cc2)C(=O)N2CCCC[C@H]2C(=O)N[C@@H](CC(N)=O)C(=O)N2CCC[C@H]2C(=O)N[C@@H](CN)C(=O)N[C@@H](CC(C)C)C(=O)N2C[C@H](O)C[C@H]2C(=O)N[C@@H](Cc2c[nH]c3ccccc23)C(=O)N[C@@H](CCN)C(=O)N[C@@H](Cc2cn(CC(=O)O)c3ccccc23)C(=O)N1C [Example 13160] ({CH2CO}-Y[Pip]NP[Dap]L[Hyp]W[Dab][Trp(1-CH2COOH)][NMeNle][NMeNle]LCG[βAsp][βAla]-X9; thioether N-14)
10,0.3 to 9.9 nM,CCCC[C@H]1C(=O)N(C)[C@@H](CCCC)C(=O)N[C@@H](CC(C)C)C(=O)N[C@H](C(=O)NCC(=O)N[C@@H](CC(=O)NCCOCCC(=O)NCC[C@H](NC(=O)CCCCCCCCCCCCCCCCC(=O)O)C(=O)O)C(=O)O)CSCC(=O)N[C@@H](Cc2ccc(O)cc2)C(=O)N2CCCC[C@H]2C(=O)N[C@@H](CC(N)=O)C(=O)N2CCC[C@H]2C(=O)N[C@@H](CN)C(=O)N[C@@H](CC(C)C)C(=O)N2C[C@H](O)C[C@H]2C(=O)N[C@@H](Cc2c[nH]c3ccccc23)C(=O)N[C@@H](CCN)C(=O)N[C@@H](Cc2cn(CC(=O)O)c3ccccc23)C(=O)N1C [Example 13161] ({CH2CO}-Y[Pip]NP[Dap]L[Hyp]W[Dab][Trp(1-CH2COOH)][NMeNle][NMeNle]LCG[βAsp][PEG1]-X9; thioether N-14)
11,0.3 to 9.9 nM,CCCC[C@H]1C(=O)N(C)[C@@H](CCCC)C(=O)N[C@@H](CC(C)C)C(=O)N[C@H](C(=O)NCC(=O)N[C@@H](CC(=O)NCCOCCOCCC(=O)NCC[C@H](NC(=O)CCCCCCCCCCCCCCCCC(=O)O)C(=O)O)C(=O)O)CSCC(=O)N[C@@H](Cc2ccc(O)cc2)C(=O)N2CCCC[C@H]2C(=O)N[C@@H](CC(N)=O)C(=O)N2CCC[C@H]2C(=O)N[C@@H](CN)C(=O)N[C@@H](CC(C)C)C(=O)N2C[C@H](O)C[C@H]2C(=O)N[C@@H](Cc2c[nH]c3ccccc23)C(=O)N[C@@H](CCN)C(=O)N[C@@H](Cc2cn(CC(=O)O)c3ccccc23)C(=O)N1C [Example 13163] ({CH2CO}-Y[Pip]NP[Dap]L[Hyp]W[Dab][Trp(1-CH2COOH)][NMeNle][NMeNle]LCG[βAsp][PEG2]-X9; thioether N-14)
